Several values for one entry are separate records, joined by “and”; a condition that tells them apart may be missing. Identical values can stand only once.
How the values were obtained:
[1] = tested on: CP50-MEL-B; test: cells; type: functional, cell-based, Homo sapiens; conditions: cp50-mel-b;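 also: growth inhibition of the human cell line, measured with a cell viability read-out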
Description: SANGER: Inhibition of human CP50-MEL-B cell growth in a cell viability assay.

[2] = tested on: CPC-N; test: cells; type: functional, cell-based; conditions: Homo sapiens;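 also: growth inhibition of CPC-N cells, with a cell viability assay as the readout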
Description: SANGER: Inhibition of human CPC-N cell growth in a cell viability assay.

[3] = tested on: Calu-6; test: cells; type: functional, cell-based, Homo sapiens; conditions: calu-6;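 also: growth of human Calu-6 cells, read out by a cell viability assay, IC50 marking inhibition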
Description: SANGER: Inhibition of human Calu-6 cell growth in a cell viability assay.

[4] = tested on: D-423MG; test: cells; type: functional, cell-based; conditions: Homo sapiens
Description: SANGER: Inhibition of human D-423MG cell growth in a cell viability assay.

[5] = tested on: DMS-153; test: cells; type: functional, cell-based; conditions: Homo sapiens
Description: SANGER: Inhibition of human DMS-153 cell growth in a cell viability assay.

[6] = tested on: DMS-273; test: cells; type: functional, cell-based, Homo sapiens
Description: SANGER: Inhibition of human DMS-273 cell growth in a cell viability assay.

[7] = tested on: Detroit 562; test: cells; type: functional, cell-based, Homo sapiens; conditions: detroit 562;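 also: growth inhibition of human Detroit 562 cells, read out by a cell viability assay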
Description: SANGER: Inhibition of human Detroit562 cell growth in a cell viability assay.

[8] = tested on: EB-3; test: cells; type: functional, cell-based; conditions: Homo sapiens;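 also: human EB-3 cells, growth inhibition read out via a cell viability assay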
Description: SANGER: Inhibition of human EB-3 cell growth in a cell viability assay.

[9] = tested on: EFM-19; test: cells; type: functional, cell-based, Homo sapiens; conditions: efm-19;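 also: growth inhibition of human EFM-19 cells, measured in a cell viability assay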
Description: SANGER: Inhibition of human EFM-19 cell growth in a cell viability assay.

[10] = tested on: EHEB; test: cells; type: functional, cell-based; conditions: Homo sapiens;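 also: growth inhibition of human EHEB cells, read out with a cell viability assay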
Description: SANGER: Inhibition of human EHEB cell growth in a cell viability assay.

[11] = tested on: EM-2; test: cells; type: functional, cell-based; conditions: Homo sapiens;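 also: growth inhibition of EM-2 cells, read out with a cell viability assay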
Description: SANGER: Inhibition of human EM-2 cell growth in a cell viability assay.

[12] = tested on: ES1; test: cells; type: functional, cell-based, Homo sapiens; conditions: es1;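 also: growth inhibition of ES1 cells, read out with a cell viability assay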
Description: SANGER: Inhibition of human ES1 cell growth in a cell viability assay.

[13] = tested on: EVSA-T; test: cells; type: functional, cell-based, Homo sapiens; conditions: evsa-t;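 also: growth inhibition of EVSA-T cells, read out with a cell viability assay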
Description: SANGER: Inhibition of human EVSA-T cell growth in a cell viability assay.

[14] = tested on: EW-22; test: cells; type: functional, cell-based; conditions: Homo sapiens;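 also: growth inhibition of the EW-22 cell line, measured with a cell viability readout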
Description: SANGER: Inhibition of human EW-22 cell growth in a cell viability assay.

[15] = tested on: G-361; test: cells; type: functional, cell-based, Homo sapiens; conditions: g-361
[16] = tested on: GDM-1; test: cells; type: functional, cell-based; conditions: Homo sapiens;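 also: cell viability readout used to measure growth inhibition of human GDM-1 cells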
Description: SANGER: Inhibition of human GDM-1 cell growth in a cell viability assay.

[17] = tested on: HCC2157; test: cells; type: functional, cell-based; conditions: Homo sapiens;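 also: growth inhibition of the cancer cell line, read out as cell viability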
Description: SANGER: Inhibition of human HCC2157 cell growth in a cell viability assay.

[18] = tested on: HEL; test: cells; type: functional, cell-based, Homo sapiens; conditions: hel;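 also: growth inhibition of HEL cells, read out with a cell viability assay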
Description: SANGER: Inhibition of human HEL cell growth in a cell viability assay.

[19] = tested on: HSC-2; test: cells; type: functional, cell-based, Homo sapiens;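 also: growth inhibition of human HSC-2 cells, read out by a cell viability assay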
Description: SANGER: Inhibition of human HSC-2 cell growth in a cell viability assay.

[20] = tested on: IMR-5; test: cells; type: functional, cell-based; conditions: Homo sapiens;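 also: growth inhibition of human IMR-5 cells, read out with a cell viability assay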
Description: SANGER: Inhibition of human IMR-5 cell growth in a cell viability assay.

[21] = tested on: J-RT3-T3-5; test: cells; type: functional, cell-based; conditions: Homo sapiens;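 also: cell viability assay measuring growth inhibition of human J-RT3-T3-5 cells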
Description: SANGER: Inhibition of human J-RT3-T3-5 cell growth in a cell viability assay.

[22] = tested on: KMS-12-PE; test: cells; type: functional, cell-based; conditions: Homo sapiens;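 also: growth inhibition of human KMS-12-PE cells, measured with a cell viability assay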
Description: SANGER: Inhibition of human KMS-12-PE cell growth in a cell viability assay.

[23] = tested on: LB831-BLC; test: cells; type: functional, cell-based, Homo sapiens; conditions: lb831-blc;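 also: growth inhibition of LB831-BLC cells, read out with a cell viability assay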
Description: SANGER: Inhibition of human LB831-BLC cell growth in a cell viability assay.

[24] = tested on: LC-1F; test: cells; type: functional, cell-based; conditions: Homo sapiens;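 also: growth inhibition of human LC-1F cells, read out with a cell viability assay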
Description: SANGER: Inhibition of human LC-1F cell growth in a cell viability assay.

[25] = tested on: MV4-11; test: cells; type: functional, cell-based, MV-4-11; conditions: Homo sapiens;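 also: cell viability readout measuring growth inhibition of human MV-4-11 cells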
Description: SANGER: Inhibition of human MV-4-11 cell growth in a cell viability assay.

[26] = tested on: NALM-6; test: cells; type: functional, cell-based; conditions: Homo sapiens;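 also: growth inhibition of NALM-6 cells, read out with a cell viability assay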
Description: SANGER: Inhibition of human NALM-6 cell growth in a cell viability assay.

[27] = tested on: NB5; test: cells; type: functional, cell-based, Homo sapiens; conditions: nb5;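 also: growth inhibition of NB5 cells, read out as cell viability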
Description: SANGER: Inhibition of human NB5 cell growth in a cell viability assay.

[28] = tested on: NB6; test: cells; type: functional, cell-based, Homo sapiens; conditions: nb6;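 also: growth inhibition of NB6 cells, read out by a cell viability assay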
Description: SANGER: Inhibition of human NB6 cell growth in a cell viability assay.

[29] = tested on: NCI-H1666; test: cells; type: functional, cell-based; conditions: Homo sapiens;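 also: growth inhibition of the cell line, read out with a cell viability assay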
Description: SANGER: Inhibition of human NCI-H1666 cell growth in a cell viability assay.

[30] = tested on: NCI-H1694; test: cells; type: functional, cell-based; conditions: Homo sapiens;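 also: cell viability assay measuring inhibition of growth in human NCI-H1694 cells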
Description: SANGER: Inhibition of human NCI-H1694 cell growth in a cell viability assay.

[31] = tested on: NCI-H187; test: cells; type: functional, cell-based; conditions: Homo sapiens;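 also: growth inhibition of NCI-H187 cells, read out as cell viability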
Description: SANGER: Inhibition of human NCI-H187 cell growth in a cell viability assay.

[32] = tested on: NCI-H1882; test: cells; type: functional, cell-based; conditions: Homo sapiens;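 also: growth inhibition of the cell line, determined with a viability assay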
Description: SANGER: Inhibition of human NCI-H1882 cell growth in a cell viability assay.

[33] = tested on: NCI-H2081; test: cells; type: functional, cell-based; conditions: Homo sapiens;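 also: growth inhibition of human NCI-H2081 cells, read out with a cell viability assay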
Description: SANGER: Inhibition of human NCI-H2081 cell growth in a cell viability assay.

[34] = tested on: NCI-H2171; test: cells; type: functional, cell-based; conditions: Homo sapiens;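 also: growth inhibition of human NCI-H2171 cells, read out by a cell viability assay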
Description: SANGER: Inhibition of human NCI-H2171 cell growth in a cell viability assay.

[35] = tested on: NCI-H460; test: cells; type: functional, cell-based, Homo sapiens; conditions: nci-h460;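 also: cell viability assay scoring growth inhibition of human NCI-H460 cells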
Description: SANGER: Inhibition of human NCI-H460 cell growth in a cell viability assay.

[36] = tested on: NCI-H522; test: cells; type: functional, cell-based, Homo sapiens; conditions: nci-h522;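 also: cell viability assay measuring growth inhibition of human NCI-H522 cells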
Description: SANGER: Inhibition of human NCI-H522 cell growth in a cell viability assay.

[37] = tested on: NCI-H630; test: cells; type: functional, cell-based, Homo sapiens; conditions: nci-h630;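 also: growth inhibition of NCI-H630 cells, read out with a cell viability assay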
Description: SANGER: Inhibition of human NCI-H630 cell growth in a cell viability assay.

[38] = tested on: NCI-H716; test: cells; type: functional, cell-based; conditions: Homo sapiens;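 also: growth inhibition of human NCI-H716 cells, measured by a cell viability assay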
Description: SANGER: Inhibition of human NCI-H716 cell growth in a cell viability assay.

[39] = tested on: NCI-H719; test: cells; type: functional, cell-based; conditions: Homo sapiens;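 also: growth inhibition of the cultured cell line, read out with a viability assay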
Description: SANGER: Inhibition of human NCI-H719 cell growth in a cell viability assay.

[40] = tested on: NCI-H889; test: cells; type: functional, cell-based; conditions: Homo sapiens;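 also: cell growth inhibition of the cell line, read out with a viability assay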
Description: SANGER: Inhibition of human NCI-H889 cell growth in a cell viability assay.

[41] = tested on: OPM-2; test: cells; type: functional, cell-based; conditions: Homo sapiens;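 also: growth of OPM-2 cells measured with a viability assay, IC50 for suppression of proliferation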
Description: SANGER: Inhibition of human OPM-2 cell growth in a cell viability assay.

[42] = tested on: PF-382; test: cells; type: functional, cell-based; conditions: Homo sapiens
Description: SANGER: Inhibition of human PF-382 cell growth in a cell viability assay.

[43] = tested on: REH; test: cells; type: functional, cell-based; conditions: Homo sapiens;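 also: growth inhibition of REH cells determined with a cell viability read-out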
Description: SANGER: Inhibition of human REH cell growth in a cell viability assay.

[44] = tested on: RPMI-7951; test: cells; type: functional, cell-based, Homo sapiens
Description: SANGER: Inhibition of human RPMI-7951 cell growth in a cell viability assay.

[45] = tested on: Raji; test: cells; type: functional, cell-based; conditions: Homo sapiens;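 also: cell viability assay measuring inhibition of Raji cell growth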
Description: SANGER: Inhibition of human Raji cell growth in a cell viability assay.

[46] = tested on: SF-539; test: cells; type: functional, cell-based, Homo sapiens; conditions: sf-539;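 also: Read-out is a cell viability assay, with IC50 reflecting inhibition of cell growth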
Description: SANGER: Inhibition of human SF539 cell growth in a cell viability assay.

[47] = tested on: SIMA; test: cells; type: functional, cell-based, Homo sapiens; conditions: sima;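 also: growth inhibition of SIMA cells, measured with a cell viability readout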
Description: SANGER: Inhibition of human SIMA cell growth in a cell viability assay.

[48] = tested on: SK-MM-2; test: cells; type: functional, cell-based; conditions: Homo sapiens;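 also: growth inhibition of human SK-MM-2 cells, read out with a cell viability assay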
Description: SANGER: Inhibition of human SK-MM-2 cell growth in a cell viability assay.

[49] = tested on: ST486; test: SANGER: Inhibition of human ST486 cell growth in a cell viability assay.; type: functional, cell-based
[50] = tested on: SUP-T1; test: cells; type: functional, cell-based; conditions: Homo sapiens;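 also: growth inhibition of human SUP-T1 cells, read out as cell viability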
Description: SANGER: Inhibition of human SUP-T1 cell growth in a cell viability assay.

[51] = tested on: SW900; test: cells; type: functional, cell-based; conditions: Homo sapiens;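 also: IC50 is the concentration that inhibits SW900 cell growth, measured by a cell viability assay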
Description: SANGER: Inhibition of human SW900 cell growth in a cell viability assay.

[52] = tested on: A549; test: cells; type: functional, cell-based; conditions: Homo sapiens;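 also: growth inhibition of A549 cells, read out with a cell viability assay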
Description: SANGER: Inhibition of human A549 cell growth in a cell viability assay.

[53] = tested on: BL-70; test: SANGER: Inhibition of human BL-70 cell growth in a cell viability assay.; type: functional, cell-based
[54] = tested on: BOKU; test: cells; type: functional, cell-based; conditions: Homo sapiens;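 also: growth inhibition of the human BOKU cell line, read out by a cell viability assay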
Description: SANGER: Inhibition of human BOKU cell growth in a cell viability assay.

[55] = tested on: C32; test: cells; type: functional, cell-based, Homo sapiens; conditions: c32;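 also: cell viability assay, with IC50 reflecting inhibition of C32 cell growth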
Description: SANGER: Inhibition of human C32 cell growth in a cell viability assay.

[56] = tested on: YT; test: cells; type: functional, cell-based; conditions: Homo sapiens
Description: SANGER: Inhibition of human YT cell growth in a cell viability assay.

[57] = tested on: CCRF-CEM; test: cells; type: functional, cell-based; conditions: Homo sapiens;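 also: inhibition of CCRF-CEM cell growth, measured by a cell viability assay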
Description: SANGER: Inhibition of human CCRF-CEM cell growth in a cell viability assay.

[58] = tested on: CHP-126; test: cells; type: functional, cell-based; conditions: Homo sapiens
Description: SANGER: Inhibition of human CHP-126 cell growth in a cell viability assay.

SMILES: Cc1cc([C@@H](C)Nc2ccccc2C(=O)O)c2nc(N3CCOCC3)cc(=O)n2c1 [AZD-6482]
- IC50 [1]: > 5.12 µM
- IC50 [2]: > 5.12 µM
- IC50 [3]: > 5.12 µM
- IC50 [4]: 2.94 µM
- IC50 [5]: > 5.12 µM
- IC50 ([6]; Homo sapiens, DMS-273): 4.83 µM
- IC50 ([6]; dms-273): 2.48 µM
- IC50 [7]: 1.05 µM and 2.13 µM
- IC50 [8]: > 5.12 µM
- IC50 [9]: > 5.12 µM
- IC50 [10]: 2.98 µM
- IC50 [11]: > 5.12 µM
- IC50 [12]: > 5.12 µM
- IC50 [13]: 3.38 µM and > 5.12 µM
- IC50 [14]: > 5.12 µM
- IC50 [15]: 3.9 µM and > 5.12 µM
- IC50 [16]: 2.24 µM
- IC50 [17]: 3.96 µM
- IC50 [18]: > 5.12 µM
- IC50 ([19]; Homo sapiens, HSC-2): 1.76 µM
- IC50 ([19]; hsc-2): 1.14 µM
- IC50 [20]: > 5.12 µM
- IC50 [21]: > 5.12 µM
- IC50 [22]: > 5.12 µM
- IC50 [23]: > 5.12 µM
- IC50 [24]: > 5.12 µM
- IC50 [25]: 2.66 µM
- IC50 [26]: 0.705 µM
- IC50 [27]: > 5.12 µM
- IC50 [28]: > 5.12 µM
- IC50 [29]: > 5.12 µM
- IC50 [30]: > 5.12 µM
- IC50 [31]: > 5.12 µM
- IC50 [32]: > 5.12 µM
- IC50 [33]: > 5.12 µM
- IC50 [34]: > 5.12 µM
- IC50 [35]: > 5.12 µM
- IC50 [36]: > 5.12 µM
- IC50 [37]: > 5.12 µM
- IC50 [38]: > 5.12 µM
- IC50 [39]: > 5.12 µM
- IC50 [40]: > 5.12 µM
- IC50 [41]: > 5.12 µM
- IC50 [42]: > 5.12 µM
- IC50 [43]: > 5.12 µM
- IC50 ([44]; Homo sapiens, RPMI-7951): > 5.12 µM
- IC50 ([44]; rpmi-7951): > 5.12 µM
- IC50 [45]: > 5.12 µM
- IC50 [46]: > 5.12 µM
- IC50 [47]: > 5.12 µM
- IC50 [48]: > 5.12 µM
- IC50 [49]: > 5.12 µM
- IC50 [50]: > 5.12 µM
- IC50 [51]: > 5.12 µM
- IC50 [52]: > 5.12 µM
- IC50 [53]: 4.86 µM
- IC50 [54]: > 5.12 µM
- IC50 [55]: > 5.12 µM
- IC50 [56]: 0.121 µM
- IC50 [57]: 3.61 µM
- IC50 [58]: > 5.12 µM

From ChEMBL document CHEMBL1201861, “Genomics of Drug Sensitity in Cancer screening data, Wellcome Trust Sanger Institute”
